Bridge positions count the residues as written; N and C are the ends. Ends that are not written are not given here.
Key:
rScl1.3FL [1] = assay: Surface plasmon resonance binding of C-C′ cyclic peptide to immobilized rScl1.3FL; parameters: species or system Streptococcus pyogenes (M3-type GAS, MGAS315); conditions: Biacore 3000, 25°C; rScl1.3FL immobilized on streptavidin chip (~100 RU); peptide 10-500 μM; HBS buffer pH 7.4; 1:1 Langmuir model; duplicates; read-out: dissociation constant KD (SPR)
Experimental: Real time binding assays were performed at 25°C on a Biacore 3000 Surface Plasmon Resonance (SPR) instrument (GE Healthcare). For immobilization, rScl1.3FL protein containing the C-terminal Strep-tag II was injected at a concentration of 40 μM on streptavidin-coated sensor chip, SA Biacore, until the desired level of immobilization was achieved (averaged value of 100 RU). Binding assays were carried out by injecting the C-C′ cyclic peptide at concentrations ranging between 10 and 500 μM. Experiments were carried out in HBS buffer (10 mM HEPES, 150 mM NaCl, 3 mM EDTA, pH 7.4). The association phase (kon) was followed for 270 s, whereas the dissociation phase (koff) was followed for 300 s. The reference chip sensorgrams were subtracted from sample sensorgrams. Experiments were carried out in duplicates. Kinetic parameters were estimated assuming a 1:1 Langmuir binding model and using version 4.1 Evaluation Software (GE Healthcare).

rScl1.3FL [2] = assay: Tryptophan fluorescence quenching binding assay in solution; parameters: species or system Streptococcus pyogenes (M3-type GAS, MGAS315); conditions: rScl1.3FL 30 μM, peptide 0-300 μM, 25.0°C, excitation 298 nm, emission 333 nm; 1:1 model; duplicates
Experimental: rScl1.3FL protein, at a concentration of 30 μM, was incubated with increasing concentrations of C-C′ cyclic peptide (0–300 μM) at 25.0°C, using an excitation wavelength of 298.0 nm and a fluorescence emission wavelength ranging from 300 to 400 nm. The acquisition parameters were set as follows: excitation and emission slits at 5 nm; 120 nm/min scan rate; 1.00 nm data interval averaging time at 0.500 s, PMT voltage at “high.” Fluorescence values were recorded at 333 nm, and subtracted from the fluorescence intensity of the ligand-free protein, generating −Δfluorescence. The −Δfluorescence values were plotted against the peptide concentration (Williamson, [2013]). Experiments were carried out in duplicates. A control assay was carried out employing the buffer as titrant to assess that the dilution effect was under 3%, not affecting the results.

[3] = target: recombinant full-length Scl1.3FL protein (streptococcal collagen-like protein 1, M3-type, repaired allele) (Streptococcus pyogenes (group A Streptococcus), M3-type strain MGAS315); assay: other fluorescence titration; tryptophan fluorescence quenching in solution; rScl1.3FL at 30 μM with 0-300 μM C-C′ cyclic peptide, 25.0°C, excitation 298 nm, read at 333 nm; 1:1 model
[4] = target: recombinant full-length Scl1.3FL protein (streptococcal collagen-like protein 1, M3-type, repaired allele) (Streptococcus pyogenes (group A Streptococcus), M3-type strain MGAS315); assay: SPR; Biacore 3000, 25°C; rScl1.3FL with C-terminal Strep-tag II immobilised on a streptavidin-coated SA chip (about 100 RU); C-C′ cyclic peptide injected at 10-500 μM; HBS buffer (10 mM HEPES, 150 mM NaCl, 3 mM EDTA, pH 7.4); 1:1 Langmuir model

Q: Which results are given for “CRVTYSSPEDGIHELFC (disulfide 1-17 (inferred)) [C-C′ cyclic peptide, Disulfide-cyclised, acetylated and amidated peptide mimicking the C-C′ β-hairpin of the EDA domain of cellular fibronectin]”?
A: Kd (rScl1.3FL [1]): 63.3 µM; Kd (rScl1.3FL [2]): 44.5 ± 9 µM

B1: C-C′ cyclic peptide (EDA-derived, mimics the C-C′ β-hairpin of the extra domain A of cellular fibronectin) (peptide)
peptide: Ac-CRVTYSSPEDGIHELFC-NH2
modifications: disulfide 1-17
SMILES: CC[C@H](C)[C@@H]1NC(=O)CNC(=O)[C@H](CC(=O)O)NC(=O)[C@H](CCC(=O)O)NC(=O)[C@@H]2CCCN2C(=O)[C@H](CO)NC(=O)[C@H](CO)NC(=O)[C@H](Cc2ccc(O)cc2)NC(=O)[C@H]([C@@H](C)O)NC(=O)[C@H](C(C)C)NC(=O)[C@H](CCCNC(=N)N)NC(=O)[C@@H](NC(C)=O)CSSC[C@@H](C(N)=O)NC(=O)[C@H](Cc2ccccc2)NC(=O)[C@H](CC(C)C)NC(=O)[C@H](CCC(=O)O)NC(=O)[C@H](Cc2c[nH]cn2)NC1=O
Q: B1 was tested. Which Kd [3] did it give?
A: 44.5 µM

Q: What about the Kd [4] of the same molecule?
A: 63.3 µM

Reference: paper PMC5005324, “Unique Footprint in the scl1.3 Locus Affects Adhesion and Biofilm Formation of the Invasive M3-Type Group A Streptococcus” (Frontiers in Cellular and Infection Microbiology, 2016)
